Measured values: the NIST ThermoML archive (doi:10.1021/acs.jced.8b00785)
Numbers after ± are expanded uncertainties.

Columns and labels:
[1] = Molar enthalpy of transition or fusion; settings: Crystal; DSC
[2] = Crystal; DSC

NNC(=O)c1ccncc1 [isonicotinic acid hydrazide]
Molar enthalpy of transition or fusion [1]: 6.72 ± 0.359 kcal/mol
Triple point temperature [2]: 446.04 ± 0.87 K
